Source: PMC3199943, “Screening the MayBridge Rule of 3 Fragment Library for Compounds That Interact with the Trypanosoma brucei myo-Inositol-3-Phosphate Synthase and/or Show Trypanocidal Activity” (Molecular Biology International, 2011)
Like-named read-outs stand apart in the source and are kept apart here.

Key:
HeLa cells = test: cells; settings: for viability at 500 µM: Homo sapiens, HeLa, 65 h; for HeLa Cells Alamar Blue: Supplementary Table 1
How it was run: (§1)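 Seed HeLa/A549 at 2 × 10^4 cells/well in DMEM/10% FCS/2 mM L-Gln; treat ~65 h; add Alamar Blue, 5 h more.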

A549 cells = test: Cytotoxicity against A549 cells, Alamar Blue; assay type: cell-based; settings: Supplementary Table 1, compound 0.5 mM, percentage of controls (n=1); for viability at 500 µM: Homo sapiens, A549, 65 h
How it was run: as §1

TbINO1 = target: T1, TbINO1 (Trypanosoma brucei brucei, UniProt Q5QQ46); test: biochemical; assay type: binding
T1 sequence (Q5QQ46 1-528): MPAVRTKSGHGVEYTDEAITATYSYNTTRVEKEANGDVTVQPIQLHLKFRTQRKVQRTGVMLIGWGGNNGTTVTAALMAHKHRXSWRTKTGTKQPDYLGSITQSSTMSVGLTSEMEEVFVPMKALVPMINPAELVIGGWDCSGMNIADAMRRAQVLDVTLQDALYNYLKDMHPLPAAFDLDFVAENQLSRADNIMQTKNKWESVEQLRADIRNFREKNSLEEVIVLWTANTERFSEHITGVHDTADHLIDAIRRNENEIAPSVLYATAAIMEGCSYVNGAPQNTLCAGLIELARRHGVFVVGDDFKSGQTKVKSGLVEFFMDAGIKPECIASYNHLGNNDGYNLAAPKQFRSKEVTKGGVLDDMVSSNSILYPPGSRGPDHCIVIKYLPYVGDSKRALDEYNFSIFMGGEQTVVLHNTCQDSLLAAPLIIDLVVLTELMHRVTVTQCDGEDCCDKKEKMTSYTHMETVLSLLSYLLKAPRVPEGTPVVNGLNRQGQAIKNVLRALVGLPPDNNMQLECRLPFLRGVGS

[1] = read-out: HeLa Cells Alamar Blue
[2] = read-out: Tb Ino1 Tm Shift [˚C]
[3] = compound 0.5 mM, percentage of controls, mean ± SD (n=3) or SE (n=2)
[4] = Supplementary Table 1, compound 1mM, mean ± SD from Boltzman curve fitting
[5] = read-out: HeLa Cells Alamar Blue, Supplementary Table 1, compound 0.5 mM, percentage of controls, mean ± SD (n=3) or SE (n=2)
[6] = Supplementary Table 1, compound 1mM, mean ± SD from Boltzman curve fitting, read-out: Tb Ino1 Tm Shift [˚C]

| Structure (SMILES) | viability at 500 µM (HeLa cells; [1]) [%] | viability at 500 µM (A549 cells) [%] | ΔTm at 1000 µM (TbINO1; [2]) [°C] | other results |
| --- | --- | --- | --- | --- |
| OCc1cccnc1N1CCCCC1 [compound 572, (2‐piperidino‐3‐pyridinyl)methanol] | 65.1 ± 5.7 | 80.1 | 1.25 ± 0.09 |  |
| CC1OCCC1=O (stereo not shown) [compound 11, 2‐methyltetrahydrofuran‐3‐one] | 101 ± 5.4 | 85.3 | 0.77 ± 0.06 |  |
| OCC1CNc2ccccc2O1 (stereo not shown) [compound 307, 3,4‐dihydro‐2H‐1,4‐benzoxazin‐2‐ylmethanol] |  |  |  | HeLa Cells Alamar Blue (HeLa cells; [3]): 81 ± 17.2 percentage of controls; A549 Cells Alamar Blue (A549 cells): 70.8 percentage of controls; Tb Ino1 Tm Shift [˚C] (TbINO1; [4]): 0.56 ± 0.06 °C |
| NCc1ccc(C(F)(F)F)cc1 [compound 390, 4‐(trifluoromethyl)benzylamine] | 84.4 ± 6.8 | 136 | 0.38 ± 0.08 |  |
| COC(=O)c1cscc1N [compound 244, methyl 4‐aminothiophene‐3‐carboxylate] | 78.7 ± 17.9 | 90.3 | 0.61 ± 0.11 |  |
| O=C(O)CCC(=O)c1cccs1 [compound 478, 4-oxo-4-(2-thienyl)butanoic acid] | 106 ± 9.3 | 92.3 |  | viability at 500 µM (HeLa cells; read-out: HeLa Cells Alamar Blue (% survival)): 106 ± 9.3%; ΔTm at 1000 µM (TbINO1; read-out: TbIno1 Tm shift [°C]): 2.58 ± 0.05 °C |
| Nc1ccc2c(c1)OCO2 [compound 121, 1,3‐benzodioxol‐5‐amine] | 76.7 ± 16 | 110 | 0.72 ± 0.07 |  |
| OCc1cc2ccccc2s1 [compound 301, 1‐benzothiophen‐2‐ylmethanol] | 90.7 ± 4.5 | 71 | 0.01 ± 0.05 |  |
| CC(=O)c1sccc1N [compound 133, 1‐(3‐amino‐2‐thienyl)ethan‐1‐one] | 83 ± 12.2 | 100 | 1.24 ± 0.07 |  |
| OCCc1c[nH]c2ccccc12 [compound 277, 2‐(1H‐indol‐3‐yl)ethan‐1‐ol] | 66.3 ± 1.7 | 59.9 | 1.12 ± 0.06 |  |
| CNCc1ccccc1-c1cccs1 [compound 646, N‐methyl‐N‐(2‐thien‐2‐ylbenzyl)amine] |  | 66.9 |  | viability at 500 µM (HeLa cells; [5]): 36.5 ± 9.5%; ΔTm at 1000 µM (TbINO1; [6]): 0.1 ± 0.05 °C |
| CC1Cc2ccccc2C1=O (stereo not shown) [compound 157, 2‐methylindan‐1‐one] | 94.7 ± 3.5 | 126 | 0.14 ± 0.07 |  |
| N#Cc1ncccc1N1CCCCC1 [compound 517, 3‐piperidin‐1‐ylpyridine‐2‐carbonitrile] | 51.2 ± 17.9 | 54.7 | 0.16 ± 0.07 |  |
| CN1CCN(c2ccccc2N)CC1 [compound 561, 2‐(4‐methylpiperazin‐1‐yl)aniline] | 74.3 ± 11.7 | 101 |  | ΔTm at 1000 µM (TbINO1; [6]): 0.46 ± 0.07 °C |
| OCc1ccc2occc2c1 [compound 168, 1‐benzofuran‐5‐ylmethanol] | 120 ± 11.4 | 75.1 | 0.39 ± 0.08 |  |
| Nc1ccc2c(c1)CCCC2=O [compound 280, 6‐amino‐1,2,3,4‐tetrahydronaphthalen‐1‐one] |  |  |  | HeLa Cells Alamar Blue (HeLa cells; [3]): 40.5 ± 19.2 percentage of controls; A549 Cells Alamar Blue (A549 cells): 87.3 percentage of controls; Tb Ino1 Tm Shift [˚C] (TbINO1; [4]): 0.82 ± 0.09 °C |
| NC(=S)c1ccsc1 [compound 148, thiophene‐3‐carbothioamide] | 92.3 ± 7 | 99.6 | 0.78 ± 0.08 |  |
| O=C(O)c1cncc(-c2ccccc2)c1 [compound 615, 5‐phenylnicotinic acid] | 80.4 ± 11.7 | 75.6 | 1.28 ± 0.09 |  |
| NCc1csc(-c2cccs2)n1 [compound 599, [2‐(2‐thienyl)‐1,3‐thiazol‐4‐yl]methylamine] |  |  |  | HeLa Cells Alamar Blue (HeLa cells; [3]): 71.9 ± 7.1 percentage of controls; A549 Cells Alamar Blue (A549 cells): 98.4 percentage of controls; Tb Ino1 Tm Shift [˚C] (TbINO1; [4]): 0.41 ± 0.06 °C |
| Cc1nn(C)c(C)c1CN [compound 128, (1,3,5‐trimethyl‐1H‐pyrazol‐4‐yl)methylamine] |  |  |  | HeLa Cells Alamar Blue (HeLa cells; [3]): 80.3 ± 7 percentage of controls; A549 Cells Alamar Blue (A549 cells): 87.7 percentage of controls; Tb Ino1 Tm Shift [˚C] (TbINO1; [4]): 0.22 ± 0.06 °C |
| O=C(O)C1CCCCO1 (stereo not shown) [compound 93, tetrahydropyran‐2‐carboxylic acid] | 97.5 ± 2.4 | 107 | 0.55 ± 0.06 |  |

| Structure (SMILES) | viability at 500 µM (HeLa cells; [1]) [%] | viability at 500 µM (A549 cells) [%] | ΔTm at 1000 µM (TbINO1; [2]) [°C] | other results |
| --- | --- | --- | --- | --- |
| CNc1ccc(F)cc1F [compound 144, N1‐methyl‐2,4‐difluoroaniline] | 79.3 ± 10.3 | 110 | 1.09 ± 0.06 |  |
| Nc1cc(F)ccc1-n1ccnc1 [compound 420, 5‐fluoro‐2‐(1H‐imidazol‐1‐yl)aniline] | 98.2 ± 10.9 | 100 | 0.36 ± 0.07 |  |
| COC(=O)c1cccc2cc[nH]c12 [compound 396, methyl 1H‐indole‐7‐carboxylate] | 36.5 ± 11.9 | 164 | 0.12 ± 0.11 |  |
| COc1ccc(C#N)cn1 [compound 108, 6‐methoxynicotinonitrile] | 95 ± 10.2 | 125 | 0.38 ± 0.07 |  |
| OCc1cnccn1 [compound 23, 2‐pyrazinylmethanol] | 77.5 ± 12.3 | 75.9 | 0.27 ± 0.07 |  |
| Cc1cccc(C)c1C#N [compound 94, 2,6‐dimethylbenzonitrile] | 96.4 ± 13.9 | 114 |  | ΔTm at 1000 µM (TbINO1; [6]): 1.3 ± 0.06 °C |
| N#CCCNCC1CCCO1 (stereo not shown) [compound 224, 3‐[(tetrahydrofuran‐2‐ylmethyl)amino]propanenitrile] |  |  |  | HeLa Cells Alamar Blue (HeLa cells; [3]): 96.5 ± 13.7 percentage of controls; A549 Cells Alamar Blue (A549 cells): 60 percentage of controls; Tb Ino1 Tm Shift [˚C] (TbINO1; [4]): 0.21 ± 0.09 °C |
| O=C(O)C1CCNCC1 [compound 90, piperidine‐4‐carboxylic acid] | 106 ± 2 | 132 | 0.5 ± 0.06 |  |
| Nc1cccc(-c2cccs2)c1 [compound 403, 3‐(2‐thienyl)aniline] | 49.1 ± 15.7 | 52.3 | 0.04 ± 0.04 |  |
| O=C(O)[C@H]1CCCN1 [compound 37, D‐proline] | 94.8 ± 10.1 | 78.6 | 0.41 ± 0.06 |  |
| NC(=S)Nc1ccncc1 [compound 215, N‐(4‐pyridyl)thiourea] | 98.3 ± 16.5 | 59.6 | 0.03 ± 0.08 |  |
| Nc1ccc2oc3c(c2c1)CCCC3 [compound 516, 6,7,8,9‐tetrahydrodibenzo[b,d]furan‐2‐amine] |  |  |  | HeLa Cells Alamar Blue (HeLa cells; [3]): 108 ± 5.2 percentage of controls; A549 Cells Alamar Blue (A549 cells): 68.2 percentage of controls; Tb Ino1 Tm Shift [˚C] (TbINO1; [4]): 0.2 ± 0.07 °C |
| Cc1ccc2cc(C(=O)O)ccc2n1 [compound 510, 2‐methyl‐6‐quinolinecarboxylic acid] | 117 ± 10.8 | 126 | 0.12 ± 0.08 |  |
| OCc1cc(F)cc2c1OCOC2 [compound 476, (6‐fluoro‐4H‐1,3‐benzodioxin‐8‐yl)methanol] |  |  |  | HeLa Cells Alamar Blue (HeLa cells; [3]): 102.6 ± 9.4 percentage of controls; A549 Cells Alamar Blue (A549 cells): 78.9 percentage of controls; Tb Ino1 Tm Shift [˚C] (TbINO1; [4]): 0.01 ± 0.07 °C |
| O=C(O)c1ccc2ncsc2c1 [compound 444, 1,3‐benzothiazole‐6‐carboxylic acid] | 92 ± 9.7 | 63.5 | 0.73 ± 0.06 |  |
| Cc1ccc(C(=O)O)c(N)c1 [compound 196, 2‐amino‐4‐methylbenzoic acid] | 97.4 ± 4.1 | 36.7 | 1.1 ± 0.06 |  |
| Cc1cc(N)no1 [compound 9, 5‐methylisoxazol‐3‐amine] |  | 112 | 0.13 ± 0.06 | viability at 500 µM (HeLa cells; [5]): 105 ± 6.2% |
| OCc1ccc(CN2CCCC2)cc1 [compound 559, [4‐(pyrrolidin‐1‐ylmethyl)phenyl]methanol] |  |  |  | HeLa Cells Alamar Blue (HeLa cells; [3]): 91.7 ± 15.8 percentage of controls; A549 Cells Alamar Blue (A549 cells): 110 percentage of controls; Tb Ino1 Tm Shift [˚C] (TbINO1; [4]): 0.05 ± 0.08 °C |
| OCc1ccc(OC(F)(F)F)cc1 [compound 563, [4‐(trifluoromethoxy)phenyl]methanol] | 94.5 ± 8.3 | 92.9 | 0.01 ± 0.07 |  |
| NC(=S)C1=Cc2ccccc2OC1 [compound 558, 2H‐chromene‐3‐carbothioamide] | 80.8 ± 8.8 | 98.1 | 0.05 ± 0.09 |  |
| Cc1ncsc1C(=O)O [compound 145, 4‐Methyl‐thiazole‐5‐carboxylic acid] | 90.6 ± 16.1 | 114 | 0.01 ± 0.07 |  |
